Laboratory results as given in publication PMC9800617, “Pharmacokinetics/pharmacodynamics of polymyxin B in patients with bloodstream infection caused by carbapenem-resistant Klebsiella pneumoniae” (Frontiers in Pharmacology, 2022).
In brackets after ≈: the same amount, converted by molar mass. Where two headings read alike, the source gives them in different places.

Columns and labels:
[1] = system: carbapenem-resistant K. pneumoniae (CRKP) strains; assay: Broth microdilution MIC (EUCAST); assay type: cell-based; conditions: Klebsiella pneumoniae
Protocol: The minimum inhibitory concentrations (MICs) to polymyxin B and meropenem of the collected CRKP strains were determined by broth microdilution according to the European Committee on Antimicrobial Susceptibility Testing (EUCAST) guidelines and interpreted according to EUCAST breakpoints of colistin (Breakpoint tables for interpretation of MICs and zone diameters, Version 11.0); Escherichia coli ATCC 25922 was used as the control strain. Polymerase chain reaction (PCR) was employed to determine the presence of resistance genes (KPC, NDM, IMP, OXA, VIM). The primers were the same as in a published protocol and the sample process procedures were adapted a little bit ([Poirel et al., 2011]). To be brief, a single colony of the bacteria were picked and resuspended in ultra-pure water, and total DNA was extracted by heating bacterial suspension at 100°C for 10 min to lysis and release DNA. The suspension was centrifuged for total DNA which was dissolved in supernatant. Then 2 µl total DNA, 1 µl forward and 1 µl reverse primers (10 µM) for each targeted gene, 12.5 µl 2 × Hieff® Robust PCR Master Mix (Yeasen, Shanghai, China) and ultra-pure water were mixed into a 25 µl reaction mixture. […] Finally amplified DNA fragments were analyzed by electrophoresis in a 1% agarose gel. […]

[2] = system: carbapenem-resistant K. pneumoniae; conditions: retrospective, 2021, cited from earlier work
From the text: In the present study, microbiological eradication was achieved by the third day of treatment in all eight patients assessed and blood culture remained negative until they had completed the study or withdrew. Clinical improvement occurred in 6 of 8 (75%) of th ...

A. baumannii = conditions: cited from earlier work
Protocol: (§1) Monte Carlo simulations were conducted for the probability of target attainment (PTA) analysis to guide the selection of optimal dosage regimens. Different dosage regimens were simulated by the PPK model and AUCss,24h were calculated. […] The maximal reductions in colony f ... || FIGURE 4 Probability of target attainment for different dosage regimens of polymyxin B against common carbapenem-resistant organisms according to PK/PD simulations. (A) Loading dose for three bacterial species. […] In preclinical studies, the fAUC/MIC required for various magnitudes of bacterial killing varied among bacterial strains and infection sites. […] Against P. aeruginosa and A. b ... || (+ 2 further places)

P. aeruginosa = conditions: cited from earlier work
Protocol: as §1

C[C@@H](O)[C@H]1C(=O)N2C(C(=O)O)=C(S[C@@H]3CN[C@H](C(=O)N(C)C)C3)[C@H](C)[C@H]12 [meropenem]
MIC ([1]; 9 strains (all except strain No. 2–2), read-out: meropenem MIC): > 64 µg/mL | MIC ([1]; strain No. 2–2, read-out: meropenem MIC): 4 µg/mL (≈ 10.4 µM)

NCC[C@H](O)C(=O)N[C@@H]1C[C@H](N)[C@@H](O[C@H]2O[C@H](CN)[C@@H](O)[C@H](O)[C@H]2O)[C@H](O)[C@H]1O[C@H]1O[C@H](CO)[C@@H](O)[C@H](N)[C@H]1O [amikacin]
30-day mortality ([2]; amikacin and its combinations for CRKP infection, ref Rodrigues et al.): 34.5%

colistin
fAUC24h/MIC target (A. baumannii; 2-log10 reduction against A. baumannii, murine thigh infection, ref Cheah et al., 2015): 17.6 | fAUC/MIC target (A. baumannii; 2 log10 kill, mouse thigh infection, A. baumannii, ref Dudhani et al., 2010a, 2010b): ~17 | fAUC24h/MIC target (P. aeruginosa; 2-log10 reduction against P. aeruginosa, murine thigh infection, ref Cheah et al., 2015): 13.5 | fAUC/MIC target (P. aeruginosa; 2 log10 kill, mouse thigh infection, P. aeruginosa, ref Dudhani et al., 2010a, 2010b): ~17

ceftazidime-avibactam
30-day mortality ([2]; CRKP BSI, alone or combined with other antibiotics, ref Tumbarello et al.): around 25%
